Assay results published in patent US7037717B1, “Cell line and screening method with the use of the same” (Chugai Seiyaku Kabushiki Kaisha, priority 1997, dated 2006).

Assays:
[1] = tested on: CL-1 cells; experiment: Differentiation of CL-1 cells into adipocytes, Oil red O-positive lipid droplets; format: cell-based, mouse
Protocol: Influences of 1,25-dihydroxyvitamin D3 known to inhibit conversion of a adipocyte precursor cell line 3T3-L1 into adipocytes (Comp. Biochem. Physiol. 96A, (1990)) on differentiation of CL-1 cells into adipocytes were examined. CL-1 cells were cultured on a 4-well chamber slide (Nunc) at a cell density of 2500 cells/cm^2 to confluent, after which 1,25-dihydroxyvitamin D3 was added at a final concentration of […] for each medium change.

[2] = tested on: CL-1 cells; experiment: Calcification of CL-1 cells, Ca deposition per dish (O-CPC method); format: cell-based, mouse; conditions: 10^−9, 10^−8 or 10^−7 M; vs solvent control, on and after 2 weeks post confluent
Protocol: CL-1 cells were cultured on a 60-mm dish (CORNING) at a cell density of 2000 cells/cm^2. When cells reached to confluent, 1,25-dihydroxyvitamin D3 was added at a final concentration of 10^−9, 10^−8 or 10^−7 M, then samples were weekly collected for 4 weeks post confluent to determine the Ca content with time. Namely, cell layers were washed with Ca-Mg-free PBS three times, then harvested in a crucible with a cell scraper (Nunc), then dried in an incubator at 60° C., then burned overnight in an oven at 800° C., and the remaining ash was dissolved in 500 μl of 6N hydrochloric acid (Wako Pure Chemical Industries). The Ca content in this solution was determined by the O-CPC method (Ca test Wako, available from Wako Pure Chemical Industries) to calculate the Ca deposition per dish.

[3] = tested on: CL-1 cells; experiment: Alizarin red S staining of CL-1 nodules; format: cell-based, mouse; conditions: 10 mM in medium, cultured one month
Protocol: CL-1 cells were similarly cultured in the medium supplemented with 10 mM β-glycerophosphate. Then, they were fixed in 4% paraformaldehyde (pH 7.4), washed with distilled water, then stained with a 1% Alizarin red S (Merck) solution for 5 minutes, washed with water and then observed with naked eyes and with an optical microscope.

[4] = tested on: CL-1 cells; experiment: Stainability of CL-1 cells with Alcian blue (pH 1.0), cartilage-inducing ability; format: cell-based, mouse; conditions: for Alcian blue (pH 1.0)-positive nodules: morphologically, compared with the medium alone
Protocol: In order to examine whether or not CL-1 cells can be used as an in vitro screening system for cartilage-inducing materials, effects of hTGF-β, known to have cartilage-inducing ability (J. Biol. Chem. 261, 5693 (1986)) on the stainability of CL-1 cells with Alcian blue (pH 1.0) were examined. Namely, CL-1 cells were cultured on a 24-well plate (CORNING) at a cell density of 2500 cells/cm^2 to confluent, at which human transforming growth factor-β1 (hTGF-β1; AUSTRAL Biologicals) was added at a concentration of 0.1, 1.0 or 10 ng/ml, and cultivation took place for 3 weeks after the start of the addition with the medium being changed every 2 or 3 days. The addition of hTGF-β1 was performed for each medium change. After completion of cultivation, cells were fixed in 4% paraformaldehyde (Wako Pure Chemical Industries) and washed with water, then treated with 0.1 N hydrochloric acid (Wako Pure Chemical Industries) for 3 minutes, and then stained overnight with an Alcian blue (pH 1.0) solution (concentration: 1%). After completion of staining, samples were washed with distilled water three times and air-dried. The dried samples were immersed in 300 μl of a 6 M guanidine hydrochloride solution (Wako Pure Chemical Industries) for 3 hours and stirred, after which the absorbance of the guanidine hydrochloride solution at 620 nm was determined.

[5] = tested on: ATDC-5 cells; experiment: Stainability of ATDC-5 cells with Alcian blue (pH 1.0); format: cell-based; conditions: 10 μg/ml insulin and 0.1 to 10 ng/ml hTGF-β1, 7 days post confluent
Protocol: ATDC-5 cells known to differentiate into chondrocytes in the presence of insulin (Cell Diff. Dev. 30, 109 (1990); available from the Cell Bank of The Institute of Physical and Chemical Research) were also cultured by the same procedure in the presence of 10 μg/ml of insulin and 0.1 to 10 ng/ml of hTGF-β1 for 7 days post confluent to examine the stainability with Alcian blue (pH 1.0).

[6] = tested on: CL-1 cells; experiment: Uptake of 35S-labeled sulfuric acid into CL-1 cell layers; format: cell-based, mouse
Protocol: CL-1 cells were plated on a polystyrene 96-well plate (Wallac) at a cell density of 2000 cells/well, and incubated in (α-MEM (GIBCO) containing 10% inactivated serum (Intergen), 100 U/ml penicillin and 100 μg/ml streptomycin in an incubator at 37° C., 5% CO2, with the medium being changed with a fresh medium 3 times a week to reach confluency. After confluency was confirmed with a microscope, the medium was changed with a fresh medium containing human TGF-β1 (AUSTRAL BIOLOGICALS) at a concentration of 0.1, 1.0 or 10 ng/ml and incubation was continued. After 24 hours, ^35S-labeled sulfuric acid (Amersham) was added at 0.5 μCi/well and incubation was continued for further 24 hours. Then, the medium was changed with 200 μl of 0.1 M phosphate buffer (pH 7.4) containing 5% paraformaldehyde (Wako Pure Chemical Industries) and 0.4% cetylpyridinium chloride (Wako Pure Chemical Industries) for fixation at room temperature for 2 hours. After CL-1 cell layers were washed once with the same buffer, 100 μl of a liquid scintillator (Optiphase supermix, available from Wallac) was added to each well followed by stirring, so that the radioactivity of ^35S-labeled sulfuric acid incorporated into CL-1 cell layers was determined by a liquid scintillation counter (Microbeta 1450, available from Wallac).

[7] = tested on: CL-1 cells; experiment: Cartilage destruction: Alcian blue stainability of hTGF-β1-enhanced CL-1 cells; format: cell-based, mouse
Protocol: This example relates to an examination about whether or not cartilage-like nodules formed by culturing CL-1 cells in the presence of hTGF-β1 are destroyed by inflammatory cytokines IL-1 or TNF-α. CL-1 cells were cultured on a 24-well plate (CORNING) at a cell density of 2500 cells/cm^2 to confluent, after which hTGF-β1 was daily added to the medium for 5 days at a final concentration of 1.0 ng/ml. Then, mouse interleukin 1α (mIL-1α; R & D systems) and mouse tumor necrosis factor-a (mTNF-α; R & D systems) were daily added to the medium for 5 days at a final concentration of 0.1, 1.0 or 10 ng/ml, and the cells were cultured. Then, the stainability of CL-1 cells with Alcian blue (pH 1.0) was determined as described hereinbefore. As a result, the stainability with Alcian blue (pH 1.0) decreased in the presence of mIL-1α at 0.1 ng/ml or more (see FIG. 15) and mTNF-α at 1.0 ng/ml or more (see FIG. 16).

With `C=C1/C(=C\C=C2/CCC[C@]3(C)[C@@H]([C@H](C)CCCC(C)(C)O)CC[C@@H]23)C[C@@H](O)C[C@@H]1O` [1,25-dihydroxyvitamin D3] the “intracellular accumulation of Oil red O-positive lipid droplets” value ([1]; 10^−3 M at each medium change, 3 weeks) was “remarkably inhibits” and the “amount of Ca deposition” value [2] was “significantly inhibited”.

In the case of `O=P(O)(O)OC(CO)CO` [β-glycerophosphate], the “Alizarin red S staining of nodules” value [3] is reported as “turned positive”.

With “hIGF-I: human insulin-like growth factor-I (CHEMICON INTERNATIONAL)” the “stainability with Alcian blue (pH 1.0)” value ([4]; 100 ng/ml, similar test, 3 weeks) was “increase”, the “Alcian blue (pH 1.0)-positive nodules” value ([4]; 3 weeks post confluent) was “clearly increased” and the “accumulation of Oil red O-positive lipid droplets in CL-1 cells” value ([1]; compared with the medium alone) was “promoted”.

With “hTGF-β1: human transforming growth factor-β1 (AUSTRAL Biologicals), known to have cartilage-inducing ability” the “stainability with Alcian blue (pH 1.0)” value ([4]; 0.1, 1.0 or 10 ng/ml added at each medium change, 3 weeks post confluent, absorbance at 620 nm) was “increased dose-dependently”, the “Alcian blue (pH 1.0)-positive nodules” value ([4]; 3 weeks post confluent) was “clearly increased” and the “stainability of ATDC-5 cells with Alcian blue (pH 1.0)” value [5] was “dose-dependently decreased”. The “increase of the uptake of 35S-labeled sulfuric acid” value ([6]; 0.1, 1.0 or 10 ng/ml, FIG. 21) was “about double” and the “concentration with statistically significant increase of the uptake of 35S-labeled sulfuric acid” value ([6]; vs control containing the medium alone, 48 h after addition) was no less than 0.1 ng/mL.

B1: mIL-1α: mouse interleukin 1α (R & D systems), inflammatory cytokine (protein, UniProt P01582 115-270, looked up)
Interleukin-1 alpha: SAPYTYQSDLRYKLMKLVRQKFVMNDSLNQTIYQDVDKHYLSTTWLNDLQQEVKFDMYAYSSGGDDSKYPVTLKISDSQLFVSAQGEDQPVLLKELPETPKLITGSETDLIFFWKSINSKNYFTSAAYPELFIATKEQSRVHLARGLPSMTDFQIS
For B1, the “destruction of cartilage-like tissues formed by CL-1 cells in the presence of human TGF-β1” value [7] was “destroyed” and the “concentration at which stainability with Alcian blue (pH 1.0) decreased” value ([7]; daily added for 5 days after 5 days of hTGF-β1 1.0 ng/ml) was no less than 0.1 ng/ml.
